Data published in the supplement of paper PMC10307832.

Experiments:
Assay in all cases: relative viability (nuclei count vs DMSO), 5 days (fraction); higher = more cells survive
NCI-H441 = system: NCI-H441
In short: (§1)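 Each reported value is a median over duplicate plates. It expresses relative viability: treated-well nuclei count divided by vehicle-well nuclei count. Lung cancer cell lines in 1536-well plates were dosed by pin tool a day after seeding, alone with one drug or with a fixed anchor-drug dose plus five library-drug doses (not always all listed) in √10 steps, and nuclei were counted after 5 days.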

NCI-H1734 = system: NCI-H1734
In short: as §1

ChaGo-K-1 = system: ChaGo-K-1
In short: as §1

NCI-H1755 = system: NCI-H1755
In short: as §1

NCI-H23 = system: NCI-H23
In short: as §1

LOU-NH91 = system: LOU-NH91
In short: as §1

NCI-H1792 = system: NCI-H1792
In short: as §1

COR-L 105 = system: COR-L 105
In short: as §1

EMC-BAC-2 = system: EMC-BAC-2
In short: as §1

EKVX = system: EKVX
In short: as §1

H3255 = system: H3255
In short: as §1

PC-3 [JPC-3] = system: PC-3 [JPC-3]
In short: as §1

NCI-H1975 = system: NCI-H1975
In short: as §1

NCI-H1563 = system: NCI-H1563
In short: as §1

NCI-H520 = system: NCI-H520
In short: as §1

A-427 = system: A-427
In short: as §1

NCI-H1666 = system: NCI-H1666
In short: as §1

NCI-H596 = system: NCI-H596
In short: as §1

HCC-366 = system: HCC-366
In short: as §1

Oc1nc(-c2ccc(C(F)(F)F)cc2)nc2c1CSCC2 [XAV939] + CC(C)C[C@H](NC(=O)[C@H](Cc1ccccc1)NC(=O)c1cnccn1)B(O)O [Bortezomib] (partner 0.002 µM)
relative viability (NCI-H441; first compound 0.08 µM): 0.45
relative viability (NCI-H441; first compound 0.253 µM): 0.401
relative viability (NCI-H441; first compound 0.8 µM): 0.572
relative viability (NCI-H441; first compound 2.53 µM): 0.681
relative viability (NCI-H1734; first compound 0.08 µM): 1.04
relative viability (NCI-H1734; first compound 0.253 µM): 0.907
relative viability (NCI-H1734; first compound 0.8 µM): 0.709
relative viability (NCI-H1734; first compound 2.53 µM): 0.86
relative viability (ChaGo-K-1; first compound 0.08 µM): 0.967
relative viability (ChaGo-K-1; first compound 0.253 µM): 0.848
relative viability (ChaGo-K-1; first compound 0.8 µM): 0.981
relative viability (ChaGo-K-1; first compound 2.53 µM): 0.941
relative viability (NCI-H1755; first compound 0.08 µM): 0.91
relative viability (NCI-H1755; first compound 0.253 µM): 0.884
relative viability (NCI-H1755; first compound 0.8 µM): 0.86
relative viability (NCI-H1755; first compound 2.53 µM): 0.868
relative viability (NCI-H23; first compound 0.08 µM): 0.992
relative viability (NCI-H23; first compound 0.253 µM): 1.12
relative viability (NCI-H23; first compound 0.8 µM): 0.989
relative viability (NCI-H23; first compound 2.53 µM): 0.886
relative viability (LOU-NH91; first compound 0.08 µM): 0.438
relative viability (LOU-NH91; first compound 0.253 µM): 0.464
relative viability (LOU-NH91; first compound 0.8 µM): 0.49
relative viability (LOU-NH91; first compound 2.53 µM): 0.415
relative viability (NCI-H1792; first compound 0.08 µM): 0.945
relative viability (NCI-H1792; first compound 0.253 µM): 0.943
relative viability (NCI-H1792; first compound 0.8 µM): 0.973
relative viability (NCI-H1792; first compound 2.53 µM): 0.869
relative viability (COR-L 105; first compound 0.08 µM): 0.853
relative viability (COR-L 105; first compound 0.253 µM): 0.755
relative viability (COR-L 105; first compound 0.8 µM): 0.618
relative viability (COR-L 105; first compound 2.53 µM): 0.567
relative viability (EMC-BAC-2; first compound 0.08 µM): 1.11
relative viability (EMC-BAC-2; first compound 0.253 µM): 0.946
relative viability (EMC-BAC-2; first compound 0.8 µM): 0.997
relative viability (EMC-BAC-2; first compound 2.53 µM): 0.636
relative viability (EKVX; first compound 0.08 µM): 1.12
relative viability (EKVX; first compound 0.253 µM): 0.882
relative viability (EKVX; first compound 0.8 µM): 0.773
relative viability (EKVX; first compound 2.53 µM): 0.573
relative viability (H3255; first compound 0.08 µM): 1.05
relative viability (H3255; first compound 0.253 µM): 0.716
relative viability (H3255; first compound 0.8 µM): 0.62
relative viability (H3255; first compound 2.53 µM): 0.853
relative viability (PC-3 [JPC-3]; first compound 0.08 µM): 0.839
relative viability (PC-3 [JPC-3]; first compound 0.253 µM): 0.722
relative viability (PC-3 [JPC-3]; first compound 0.8 µM): 0.831
relative viability (PC-3 [JPC-3]; first compound 2.53 µM): 0.755
relative viability (NCI-H1975; first compound 0.08 µM): 0.305
relative viability (NCI-H1975; first compound 0.253 µM): 0.352
relative viability (NCI-H1975; first compound 0.8 µM): 0.346
relative viability (NCI-H1975; first compound 2.53 µM): 0.349
relative viability (NCI-H1563; first compound 0.08 µM): 0.835
relative viability (NCI-H1563; first compound 0.253 µM): 0.81
relative viability (NCI-H1563; first compound 0.8 µM): 0.798
relative viability (NCI-H1563; first compound 2.53 µM): 0.764
relative viability (NCI-H520; first compound 0.08 µM): 0.612
relative viability (NCI-H520; first compound 0.253 µM): 0.317
relative viability (NCI-H520; first compound 0.8 µM): 0.659
relative viability (NCI-H520; first compound 2.53 µM): 0.368
relative viability (A-427; first compound 0.08 µM): 1.06
relative viability (A-427; first compound 0.253 µM): 0.977
relative viability (A-427; first compound 0.8 µM): 0.883
relative viability (A-427; first compound 2.53 µM): 0.769
relative viability (NCI-H1666; first compound 0.08 µM): 0.813
relative viability (NCI-H1666; first compound 0.253 µM): 0.611
relative viability (NCI-H1666; first compound 0.8 µM): 0.422
relative viability (NCI-H1666; first compound 2.53 µM): 0.5
relative viability (NCI-H596; first compound 0.08 µM): 1.11
relative viability (NCI-H596; first compound 0.253 µM): 1.1
relative viability (NCI-H596; first compound 0.8 µM): 1.09
relative viability (NCI-H596; first compound 2.53 µM): 1.3
relative viability (HCC-366; first compound 0.08 µM): 1.12
relative viability (HCC-366; first compound 0.253 µM): 0.991
relative viability (HCC-366; first compound 0.8 µM): 1.01
relative viability (HCC-366; first compound 2.53 µM): 1.05
